According to patent US20060014737A1, “Methods of treatment of amyloidosis using bi-aryl aspartyl protease inhibitors” (priority 2004, published 2006):
Where “and” joins values, the source holds several entries; their conditions need not be identical. Equal entries are not always repeated.

What was measured:
[1] = tested on: catD versus beta-secretase (BACE); assay: Selectivity for BACE versus catD (ratio of IC50 values); type: biochemical; conditions: each value an average of four runs; multiple values = more than one experiment
Experimental: (§1) Investigation of potential beta-secretase inhibitors produced compounds with increased selectivity for beta-secretase over other aspartyl proteases such as cathepsin D (catD), cathepsin E (catE), HIV protease, and renin. Selectivity was calculated as a ratio of inhibition (IC50) values in which the inhibition of beta-secretase was compared to the inhibition of other aspartyl proteases. […] Alternatively, a compound is selective when its binding affinity is greater for its desired target (e.g., beta-secretase) versus a secondary target (e.g., catD). Accordingly, methods of treatment include administering selective compounds of formula (I) having a lower IC50 value for inhibiting beta-secretase, or greater binding affinity for beta-secretase, than for other aspartyl proteases such as catD, catE, HIV protease, or renin. A selective compound is also capable of producing a higher ratio of desired effects to adverse effects, resulting in a safer method of treatment.
The compounds of formula (I) can be selective for beta-secretase versus catD. […] Selectivity is reported as the ratio of IC50(catD):IC50(BACE).
(§2) In the following examples, each value is an average of four experimental runs and multiple values for one compound indicate that more than one experiment was conducted.

A-beta = assay: Efficacy of compounds to inhibit A-beta concentration; type: in vivo, rat; conditions: % inhibition of A-beta vs vehicle control
Experimental: Efficacious compounds of the present invention are those able to decrease the amount of A-beta produced compared to a control, where beta-secretase mediated cleavage is observed and measured in the absence of the compounds. Detection of efficacy can be by analysis of A-beta levels, for example, by immunoassay, fluorometric or chromogenic assay, HPLC, or other means of detection. The efficacy of the compounds of formula (I) was determined as a percentage inhibition corresponding to A-beta concentrations for tissue treated and untreated with a compound of formula (I).
The invention encompasses compounds of formula (I) that are efficacious. Efficacy is calculated as a percentage of concentrations as follows: Efficacy=(1−(total A-beta in dose group/total A-beta in vehicle control))*100% wherein the “total A-beta in dose group” equals the concentration of A-beta in the tissue, (e.g., rat brain) treated with the compound, and the “total A-beta in vehicle control” equals the concentration of A-beta in the tissue, yielding a % inhibition of A-beta production. Statistical significance is determined by p-value <0.05 using the Mann Whitney t-test. See, for example, Dovey et al., J. Neurochemistry, 2001, 76:173-181.

[2] = tested on: catE versus beta-secretase (BACE); assay: Selectivity for BACE versus catE (ratio of IC50 values); type: biochemical; conditions: each value an average of four runs; multiple values = more than one experiment
Experimental: as §1
The compounds of formula (I) can be selective for beta-secretase versus catE. […] Selectivity is reported as the ratio of IC50(catE):IC50(BACE).
as §2

Row | SMILES | Selectivity IC50(catD)/IC50(BACE) [1] | other results
1 | CC(=O)NC(Cc1cc(F)cc(F)c1)C(O)CNCc1cc(CC(C)(C)C)ccc1-n1ccnc1 (centres unmarked) [Example 41.1, N-{1-(3,5-Difluoro-benzyl)-3-[5-(2,2-dimethyl-propyl)-2-imidazol-1-yl-benzylamino]-2-hydroxy-propyl}-acetamide] | – | Efficacy (% Inhibition, 100 mg/kg) cortex (A-beta; cortex): 15%; Efficacy (% Inhibition, 100 mg/kg) plasma (A-beta; plasma): 47%
2 | CC(=O)NC(Cc1cc(F)cc(F)c1)C(O)CNCc1cc(CC(C)(C)C)ccc1-n1cnc(CO)c1 (centres unmarked) [Example 41.9, N-(1-(3,5-difluorophenyl)-3-hydroxy-4-(2-(4-(hydroxymethyl)-1H-imidazol-1-yl)-5-neopentylbenzylamino)butan-2-yl)acetamide] | – | Selectivity IC50(catE)/IC50(BACE) [2]: 1.2
3 | CC(=O)NC(Cc1cc(F)cc(F)c1)C(O)CNCc1cc(CC(C)(C)C)ccc1-n1nccn1 (centres unmarked) [Example 41.7, N-(1-(3,5-difluorophenyl)-3-hydroxy-4-(5-neopentyl-2-(2H-1,2,3-triazol-2-yl)benzylamino)butan-2-yl)acetamide] | >33.1 | –
4 | CC(=O)NC(Cc1cc(F)cc(F)c1)C(O)CNCc1cc(CC(C)(C)C)ccc1-n1nccn1 (centres unmarked) [Example 41.11, N-(1-(3,5-difluorophenyl)-3-hydroxy-4-(5-neopentyl-2-(2H-1,2,3-triazol-2-yl)benzylamino)butan-2-yl)acetamide] | – | Selectivity IC50(catE)/IC50(BACE) [2]: 1.4

Further lines, with some results ahead:

Row | Selectivity IC50(catD)/IC50(BACE) [1] | SMILES | other results
5 | 1.7 | CC(=O)NC(Cc1cc(F)cc(F)c1)C(O)CNCc1cc(CC(C)(C)C)ccc1-n1cnc(C)c1 (centres unmarked) [Example 41.4, N-{1-(3,5-Difluoro-benzyl)-3-[5-(2,2-dimethyl-propyl)-2-(4-methyl-imidazol-1-yl)-benzylamino]-2-hydroxy-propyl}-acetamide] | –
6 | 1.6 | CC(=O)NC(Cc1cc(F)cc(F)c1)C(O)CNCc1cc(CC(C)(C)C)ccc1-n1cnc(CO)c1 (centres unmarked) [Example 41.3, N-(1-(3,5-difluorophenyl)-3-hydroxy-4-(2-(4-(hydroxymethyl)-1H-imidazol-1-yl)-5-neopentylbenzylamino)butan-2-yl)acetamide] | –
7 | 3.6 and 3.0 | CC(=O)NC(Cc1cc(F)cc(F)c1)C(O)CNCc1cc(CC(C)(C)C)ccc1-n1cnc2ccccc21 (centres unmarked) [Example 41.5, N-[3-[2-Benzoimidazol-1-yl-5-(2,2-dimethyl-propyl)-benzylamino]-1-(3,5-difluoro-benzyl)-2-hydroxy-propyl]-acetamide] | –
